Read-outs that look alike come from different tables or passages of the source.
Tests used:
[1] = MTT cytotoxicity assay, MCF7; format: cell-based; details: human, means ± SD of three replicates
Procedure: (§1) The cancer cells were cultured in Dulbecco’s Modified Eagle’s Medium with 10% Fetal Bovine Serum, 1% penicillin and streptomycin, and 1% L-glutamine at 37 °C in a 5% CO2 environment. The tested compounds were added at concentrations ranging from 0.5 to 128 μg/mL by dissolving in DMSO (20 mg/mL) and incubated for a further 72 h in the identical condition. After the treatment, each well was filled with an MTT solution (10 μL, 5 mg/mL) of phosphate buffer, which was left to stand for 4 h until intracellular purple formazan crystals appeared. The MTT was removed and a 100 μL DMSO solution was added. The blank contained only a medium without any cells and MTT, as well as the solubilizing solution. The solution’s optical density (OD) at 540 nm was recorded on a BIOTEK reader. All experiments were carried out in triplicate for three independent experiments. IC50 values were computed graphically using inhibition curves.

[2] = test system: α-glucosidase; set-up: method as in doi:10.1016/S0031-9422(99)00314-3; details: cited from earlier work
[3] = test system: KB cell line; set-up: method as in doi:10.1016/j.phytol.2012.09.007; details: read-out: Cytotoxicity IC50, KB (previous research); cited from earlier work
[4] = test system: MCF7 cell line; details: cited from earlier work
[5] = test system: Hep G2 cell line; set-up: method as in PMID 29116937, doi:10.1016/j.phytol.2019.05.003; details: read-out: Cytotoxicity IC50, Hep G2 (previous research); cited from earlier work
[6] = test system: normal Vero cell line; set-up: method as in doi:10.1007/s00044-017-1843-8; details: cited from earlier work
[7] = MTT cytotoxicity assay, KB; format: cell-based; details: human, means ± SD of three replicates
Procedure: as §1

[8] = MTT cytotoxicity assay, Hep G2; format: cell-based; details: human, means ± SD of three replicates
Procedure: as §1

[9] = MCF-7 cells (human breast adenocarcinoma)
[10] = read-out: Cytotoxicity IC50, MCF7 (previous research)

CC(C)=CCc1cc2c(c(O)c1O)C(=O)C[C@@H](c1ccccc1)O2 [Compound 3, melodorone C]
IC50 at 72 h [1, 9]: > 100 µM

COc1cc(O)c2c(=O)cc(-c3ccccc3)oc2c1 [Compound 4, tectochrysin]
α-Glucosidase inhibition (previous research, in words) [2]: no α-glucosidase inhibition | IC50 [3]: 55.3 µM | IC50 [4, 10]: 16.7 µM

O=c1cc(-c2ccccc2)oc2cc(O)cc(O)c12 [Compound 5, chrysin]
IC50 ([2]; read-out: α-Glucosidase inhibition IC50 (previous research)): 5.7 µM | IC50 [5]: 50.6 µM | IC50 [4, 10]: 37.2 µM | Cytotoxicity against normal Vero cell line [6]: no cytotoxicity

COc1cc2c(c(O)c1OC)C(=O)C[C@@H](c1ccccc1)O2 [Compound 6, onysilin]
IC50 at 72 h [7]: > 100 µM | IC50 at 72 h [8]: > 100 µM | IC50 at 72 h [1]: > 100 µM

O=C1C[C@@H](c2ccccc2)Oc2cc(O)cc(O)c21 [Compound 7, pinocembrin]
IC50 at 72 h ([7]; KB cells (human epidermoid carcinoma)): > 100 µM | IC50 at 72 h ([8]; Hep G2 cells (human hepatocellular carcinoma)): > 100 µM | IC50 at 72 h [1, 9]: > 100 µM | α-Glucosidase inhibition (previous research, in words) [2]: no α-glucosidase inhibition | IC50 ([4]; 48 h, read-out: Cytotoxicity IC50, MCF7, 48 h): 226 µM | IC50 ([4]; 72 h, read-out: Cytotoxicity IC50, MCF7, 72 h): 108 µM | Cytotoxicity against normal Vero cell line [6]: no cytotoxicity
